Publication PMC3867937 (MedChemComm, 2013)
Values after ≈ are worked out from the molar mass of the structure shown.

What was measured:
[1] = system: membrane permeable strain (BAS3023) of Escherichia coli; assay: Antibacterial MIC testing, microdilution, E. coli; format: cell-based; settings: 24 h; for E. coli MIC: membrane permeable strain of E. coli, cation-adjusted Mueller-Hinton Broth, 37°C
Bacillus subtilis [2] = settings: cited from earlier work
[3] = system: membrane permeable strain (BAS3023) of Escherichia coli; settings: cited from earlier work
E. coli DNA gyrase = E. coli DNA gyrase (Escherichia coli, UniProt P0AES4+P0AES6); assay: E. coli DNA gyrase supercoiling assay; format: biochemical; settings: for E. coli DNA gyrase IC50: supercoiling assay, relaxed plasmid DNA
E. coli DNA gyrase, sequence (P0AES4 whole entry, one chain of several): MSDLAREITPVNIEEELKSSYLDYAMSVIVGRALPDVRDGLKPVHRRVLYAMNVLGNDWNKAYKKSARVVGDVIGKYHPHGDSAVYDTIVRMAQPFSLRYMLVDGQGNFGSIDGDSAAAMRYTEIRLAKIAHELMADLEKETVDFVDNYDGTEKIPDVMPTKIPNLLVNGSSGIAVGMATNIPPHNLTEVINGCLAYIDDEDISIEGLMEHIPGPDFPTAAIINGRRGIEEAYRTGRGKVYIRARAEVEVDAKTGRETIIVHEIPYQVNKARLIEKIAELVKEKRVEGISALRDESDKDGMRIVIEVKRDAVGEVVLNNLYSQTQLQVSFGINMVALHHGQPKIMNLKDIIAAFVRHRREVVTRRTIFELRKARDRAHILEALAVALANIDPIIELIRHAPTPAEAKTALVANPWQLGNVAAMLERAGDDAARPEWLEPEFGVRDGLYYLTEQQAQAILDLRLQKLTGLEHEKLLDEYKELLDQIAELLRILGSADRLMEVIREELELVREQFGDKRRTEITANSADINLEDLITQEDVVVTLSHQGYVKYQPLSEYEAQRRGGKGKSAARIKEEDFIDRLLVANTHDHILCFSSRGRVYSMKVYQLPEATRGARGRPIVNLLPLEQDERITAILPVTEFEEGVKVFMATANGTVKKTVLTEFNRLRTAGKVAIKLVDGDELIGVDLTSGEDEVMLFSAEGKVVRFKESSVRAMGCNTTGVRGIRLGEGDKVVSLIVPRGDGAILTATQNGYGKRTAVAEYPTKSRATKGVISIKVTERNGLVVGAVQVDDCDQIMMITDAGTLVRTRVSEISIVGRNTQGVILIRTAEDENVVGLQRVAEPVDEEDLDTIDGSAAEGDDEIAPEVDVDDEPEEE

Bacillus subtilis [4] = assay: Antibacterial MIC testing, microdilution, B. subtilis; format: cell-based; settings: for B. subtilis MIC: cation-adjusted Mueller-Hinton Broth, 24 h, 37°C; for MIC: Bacillus subtilis, read-out: MIC antibacterial activity
E. coli topoisomerase I = E. coli topoisomerase I (Escherichia coli, UniProt P06612); assay: E. coli topoisomerase I relaxation inhibition assay with supercoiled plasmid DNA; format: biochemical; settings: relaxation of supercoiled pBAD/Thio plasmid, 30 min at 37°C
E. coli topoisomerase I, sequence (P06612 whole entry): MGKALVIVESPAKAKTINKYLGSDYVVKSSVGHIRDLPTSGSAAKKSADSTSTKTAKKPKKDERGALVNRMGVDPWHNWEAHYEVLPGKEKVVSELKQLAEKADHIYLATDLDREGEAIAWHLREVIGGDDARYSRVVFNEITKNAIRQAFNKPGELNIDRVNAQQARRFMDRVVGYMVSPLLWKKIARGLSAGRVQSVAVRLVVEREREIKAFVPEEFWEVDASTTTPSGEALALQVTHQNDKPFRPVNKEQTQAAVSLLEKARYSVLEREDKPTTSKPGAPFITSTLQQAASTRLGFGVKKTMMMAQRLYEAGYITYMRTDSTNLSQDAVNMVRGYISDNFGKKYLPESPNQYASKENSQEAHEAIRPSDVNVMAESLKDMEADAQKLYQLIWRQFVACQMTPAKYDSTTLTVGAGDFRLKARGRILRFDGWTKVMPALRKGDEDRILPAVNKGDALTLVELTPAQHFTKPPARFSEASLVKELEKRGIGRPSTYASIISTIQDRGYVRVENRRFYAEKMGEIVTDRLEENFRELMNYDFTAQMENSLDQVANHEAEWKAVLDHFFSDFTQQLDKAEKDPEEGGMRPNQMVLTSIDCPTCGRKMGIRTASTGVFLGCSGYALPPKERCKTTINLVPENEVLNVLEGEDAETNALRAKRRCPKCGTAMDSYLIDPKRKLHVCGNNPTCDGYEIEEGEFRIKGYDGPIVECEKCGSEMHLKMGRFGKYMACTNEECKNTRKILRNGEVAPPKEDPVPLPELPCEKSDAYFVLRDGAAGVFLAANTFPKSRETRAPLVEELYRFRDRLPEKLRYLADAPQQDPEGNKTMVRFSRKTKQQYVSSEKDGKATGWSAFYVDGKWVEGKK

S. rolfsii = settings: cited from earlier work

Row | SMILES | E. coli MIC [1] | IC50 (E. coli DNA gyrase) [µM] | E. coli DNA gyrase IC50 (E. coli DNA gyrase) | E. coli Topo I inhibition IC50 (E. coli topoisomerase I) | further results
1 | CCCCCc1cc(OC(=O)c2c(O)cc(O)cc2CCCCC)cc(O)c1C(=O)O [Anziaic acid (synthetic sample), anziaic acid] | 100 µM |  |  |  | MIC against Bacillus subtilis (Bacillus subtilis [2]): 6 µg/mL (≈ 13.9 µM); MIC against membrane permeable strain (BAS3023) of Escherichia coli [3]: 12 µg/mL
2 | CCCCCc1cc(O)cc(O)c1C(=O)O [Compound 4, 2,4-dihydroxy-6-pentylbenzoic acid] | no inhibitory activity | > 1000 | no inhibitory activity |  | B. subtilis MIC (Bacillus subtilis [4]): no inhibitory activity
3 | CCCCCc1cc(OC(=O)c2c(CCCCC)cc(OCc3ccccc3)cc2OCc2ccccc2)cc(O)c1C(=O)OCc1ccccc1 [Compound 6, benzyl 4-((2,4-bis(benzyloxy)-6-pentylbenzoyl)oxy)-2-hydroxy-6-pentylbenzoate] |  | > 1000 | inactive | inactive | 
4 | O=C(OCc1ccccc1)c1ccc(OC(=O)c2ccc(OCc3ccccc3)cc2OCc2ccccc2)cc1O [Compound 10c] |  | > 1000 |  |  | 
5 | O=C(O)c1ccc(OC(=O)c2ccc(O)cc2O)cc1O [Compound 11c] | complete loss | > 1000 | complete loss | complete loss | B. subtilis MIC (Bacillus subtilis [4]): complete loss
6 | CCCCCc1cc(O)cc(O)c1C(=O)Oc1cc(CCCCC)c2c(c1)OC(C)(C)OC2=O [Compound 14] |  | > 1000 | inactive | inactive | 
7 | Nc1ccc(/N=N/c2ccccc2)c(N)c1 [Compound 18] |  |  |  |  | MIC (Bacillus subtilis [4]): 200 to 400 µM (≈ 42.5 to 84.9 µg/mL); MIC ([1]; Escherichia coli, read-out: E. coli MIC): 200 to 400 µM (≈ 42.5 to 84.9 µg/mL)
8 | O=C(O)c1cc(/N=N/c2cccc([N+](=O)[O-])c2)ccc1O [Compound 19] |  |  |  |  | MIC (Bacillus subtilis [4]): 200 to 400 µM (≈ 57.4 to 115 µg/mL)
9 | COC(=O)c1c(C)cc(OC(=O)c2c(C)cc(O)c(C=O)c2O)c(C)c1O [atranorin] |  |  |  |  | ED50 antifungal activity against S. rolfsii (S. rolfsii): 39.70 µg/mL (≈ 106 µM)
